Our source for the IC50 values is EP0450097B1, “BENZOHETEROCYCLIC COMPOUNDS” (OTSUKA PHARMACEUTICAL CO., LTD., priority 1989, dated 1991).

The target of the test is T1, V₂ receptor (Rattus norvegicus, UniProt Q00788).
T1 construct: Using rat kidney plasma membrane preparations; from tissue; host or cells: rat kidney plasma membranes
T1 sequence (Q00788 whole entry): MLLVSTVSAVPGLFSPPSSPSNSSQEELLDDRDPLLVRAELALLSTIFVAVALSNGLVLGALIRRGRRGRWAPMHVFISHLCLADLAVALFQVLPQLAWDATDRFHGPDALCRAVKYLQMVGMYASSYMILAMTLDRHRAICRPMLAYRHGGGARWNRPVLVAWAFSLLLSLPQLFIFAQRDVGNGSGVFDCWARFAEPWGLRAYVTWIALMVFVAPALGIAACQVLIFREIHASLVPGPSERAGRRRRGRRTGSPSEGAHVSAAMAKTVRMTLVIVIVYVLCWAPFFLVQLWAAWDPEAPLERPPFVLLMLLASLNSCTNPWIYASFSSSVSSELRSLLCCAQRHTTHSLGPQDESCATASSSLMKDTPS
Nature of the test: V₂ receptor binding assay ([³H]-Arg-vasopressin, rat kidney plasma membrane preparations). The following applies: 4°C for 3 hours. The procedure: Using rat kidney plasma membrane preparations prepared according to O. Hechter's method [cf: J. Bio. […] After incubation, the mixture is filtered using the glass filter (GF/F) so as to separate the membrane preparation combined with vasopressin and then washed twice with the buffer (5 ml). This glass filter is taken out and mixed with liquid scintillation cocktail. The amount of [³H]-vasopressin combined with the membrane is measured by liquid scintillation counter and the rate of the inhibitory effect of the test compound is estimated according to the following equation. Rate of the inhibitory effect (%) = 100 -(C1 - B1)/(C0 - B1)X 100 [formula] C¹: The amount of [³H]-vasopressin combined with the membrane in the presence of the test compound (in prescribed amount). C⁰: The amount of [³H)-vasopressin combined with the membrane in the absence of the test compound. B¹: The amount of [³H]-vasopressin combined with the membrane in the presence of the excess amount of vasopressin (10⁻⁶ M).
The results are expressed as IC₅₀ values, which is the concentration of the test compound required to achieve the inhibitory effect in the rate of 50 %.
Turning to `COc1ccc2c(c1)CCCN2C(=O)c1ccc(NC(=O)c2cc(Cl)cc(Cl)c2)cc1` [compound 95], the IC50 (as a rule, the concentration that inhibits the measured activity by half) was found to be 89 nM.
`COc1cccc(C(=O)Nc2ccc(C(=O)N3CCCc4ccccc43)cc2)c1` [compound 3] yielded an IC50 of 400 nM. Compared with the last compound, the IC50 is about 4.5-fold higher.
`O=C(Nc1ccc(C(=O)N2CCCc3ccccc32)cc1)C1CCCCC1` [compound 14] returned an IC50 of 230 nM.
Compound `CN(C)C1CCCN(C(=O)c2ccc(NC(=O)c3ccc(F)cc3F)cc2)c2ccccc21` (stereo not shown) [compound 213] had an IC50 of 33 nM.
In the case of `COc1cc(C(=O)N2CCC(N(C)C)c3ccccc32)ccc1NC(=O)c1cccc(C)c1C` (stereo not shown) [compound 144] it was 20 nM; in that of `Nc1cccc(C(=O)Nc2ccc(C(=O)N3CCCc4ccccc43)cc2)c1` [compound 5], 1200 nM.
Regarding `Cc1cc(NC(=O)c2ccc(Cl)cc2Cl)ccc1C(=O)N1CCCC(N(C)C)c2ccccc21` (stereo not shown) [compound 220], the IC50 is 26 nM.
In turn, `Cc1cccc(C(=O)Nc2ccc(C(=O)N3CCN(C)c4ccccc43)cc2)c1C` [compound 52] displayed an IC50 of 320 nM.
In the case of `O=C(Nc1ccc(C(=O)N2CCCc3ccccc32)cc1)c1ccccc1` [Test compound 1, 1-(4-Benzoylaminobenzoyl)-1,2,3,4-tetrahydroquinoline] it was 980 nM.
To `C=CCN(C)C1CCCN(C(=O)c2ccc(NC(=O)c3ccccc3C)cc2Cl)c2ccccc21` (stereo not shown) [compound 190] belongs 82 nM; to `COc1cc(C(=O)N2CCN(C)Cc3ccccc32)ccc1NC(=O)c1cc(Cl)cc(Cl)c1` [compound 92], 410 nM.
Take `O=C(Nc1ccc(C(=O)N2CCCc3ccccc32)cc1)c1ccccc1C(F)(F)F` [compound 8]: the IC50 is 320 nM. The IC50 values of the last two compounds are within 1.5-fold of each other.
Consider `Cc1ccc(NCC(=O)Nc2ccc(C(=O)N3CCCCc4ccccc43)cc2)c(C)c1` [compound 113], for which the IC50 is 280 nM. This IC50 and that of the compound before are within 1.5-fold of each other.
`Cc1ccccc1C(=O)Nc1ccc(C(=O)N2CCCC(N(C)CCCOC3CCCCO3)c3ccccc32)cc1` (stereo not shown) [compound 267] yielded an IC50 of 120 nM.
The compound `O=C(COc1ccccc1)Nc1ccc(C(=O)N2CCCCc3ccccc32)cc1` [compound 104] came in with an IC50 of 370 nM.
`CN(C)C1CCCN(C(=O)c2ccc(NC(=O)c3ccccc3OCC(N)=O)cc2)c2ccccc21` (stereo not shown) [compound 239] displayed an IC50 of 170 nM.
In the case of `Cc1ccccc1C(=O)Nc1ccc(C(=O)N2CC=Cc3ccccc32)cc1` [compound 217] it was 370 nM; in that of `O=C(Nc1ccc(C(=O)N2CCCC(=O)c3ccccc32)cc1)c1cc(Cl)cc(Cl)c1` [compound 139], 100 nM; in that of `O=C(Nc1ccc(C(=O)N2CCCc3ccccc32)cc1)c1cccc2ccccc12` [compound 18], 1000 nM.
To `O=C(Nc1ccc(C(=O)N2CC(CO)Cc3ccccc32)cc1)c1cc(Cl)cc(Cl)c1` (stereo not shown) [compound 96] belongs 39 nM; to `COc1cccc(C(=O)Nc2ccc(C(=O)N3CCCCCc4ccccc43)cc2)c1` [compound 37], 160 nM.
In the case of `CC(C)(C)CC(=O)Nc1ccc(C(=O)N2CCCc3ccccc32)cc1` [compound 11] it was 1050 nM; in that of `CN(C)C1CCCN(C(=O)c2ccc(NC(=O)CCc3ccccc3)cc2)c2ccccc21` (stereo not shown) [compound 306], 77 nM; in that of `COc1cccc(NCC(=O)Nc2ccc(C(=O)N3CCCCc4ccccc43)cc2)c1` [compound 108], 120 nM.
`CNC1CCCN(C(=O)c2ccc(NC(=O)c3ccccc3Cl)cc2Cl)c2ccccc21` (stereo not shown) [compound 176] displayed an IC50 of 4 nM.
The compound `Cc1cccc(C(=O)Nc2ccc(C(=O)N3CCCCCc4ccccc43)cc2)c1C` [compound 38] yielded an IC50 of 29 nM.
In the case of `Cc1ccccc1C(=O)Nc1ccc(C(=O)N2CCC(C)C(N(C)C)c3ccccc32)cc1` (stereo not shown) [compound 254] it was 16 nM.
To `Cc1cccc(C(=O)Nc2ccc(C(=O)N3CC(N4CCCC4)Cc4ccccc43)cc2)c1C` (stereo not shown) [compound 93] belongs 520 nM.
Turning to `CN(C)C1CCCN(C(=O)c2ccc(NC(=O)c3ccccc3Cl)c(OC(=O)c3ccccc3Cl)c2)c2ccccc21` (stereo not shown) [compound 189], the IC50 came to 87 nM. This IC50 is about 6-fold lower than that of the compound before.
`Cc1ccccc1C(=O)Nc1ccc(C(=O)N2CCCC(N(C)C)c3ccccc32)c(N(C)C)c1` (stereo not shown) [compound 197]: the IC50 worked out at 990 nM. Compared with the last compound, the IC50 is about 11-fold higher.
To `O=C(Nc1ccc(C(=O)N2CCCC(NC3CC3)c3ccccc32)c(Cl)c1)c1ccc(Cl)cc1Cl` (stereo not shown) [compound 186] belongs 30 nM; to `CC1Cc2ccccc2N(C(=O)c2ccc(NC(=O)c3ccccc3)cc2)C1` (stereo not shown) [compound 45], 190 nM.
In the case of `COc1cc(NC(=O)c2ccccc2C)ccc1C(=O)N1CCCC(N(C)C)c2ccccc21` (stereo not shown) [compound 183], the IC50 turned out to be 260 nM.
To `CN(C)C1CCCN(C(=O)c2ccc(NC(=O)c3ccccc3C(C)(C)C)cc2Cl)c2ccccc21` (stereo not shown) [compound 175] belongs 38 nM; to `O=C(Nc1cccc(Cl)c1)c1ccc(C(=O)N2CCCc3ccccc32)cc1` [compound 23], 1070 nM; to `Cc1cccc(C(=O)Nc2ccc(C(=O)N3CCOCc4ccccc43)cc2)c1` [compound 41], 200 nM.
The compound `CCN(CC(=O)Nc1ccc(C(=O)N2CCCC(NC)c3ccccc32)c(Cl)c1)c1ccccc1` (stereo not shown) [compound 221] had an IC50 of 24 nM.
In the case of `COc1cccc(OCC(=O)Nc2ccc(C(=O)N3CCCCc4ccccc43)cc2)c1` [compound 111] it was 87 nM; in that of `Cc1ccccc1N(C)CC(=O)Nc1ccc(C(=O)N2CCCC(N(C)C)c3ccccc32)cc1` (stereo not shown) [compound 317], 72 nM.
As for `CN1CCCN(C(=O)c2ccc(NC(=O)c3ccccc3)cc2)c2ccccc21` [compound 87], the IC50 worked out at 46 nM.
`Cc1cccc(C(=O)Nc2ccc(C(=O)N3CCOCc4ccccc43)cc2)c1C` [compound 42] registered an IC50 of 63 nM.
Turning to `Cc1ccc(NCC(=O)Nc2ccc(C(=O)N3CCCCc4ccccc43)cc2)cc1` [compound 110], the IC50 amounted to 44 nM.
As for `O=C(Nc1ccc(C(=O)N2CCOCc3ccccc32)cc1)c1cc(Cl)cc(Cl)c1` [compound 43], the IC50 was determined as 170 nM.
Regarding `O=C(Nc1ccc(C(=O)N2CCCc3ccccc32)cc1)c1ccccc1[N+](=O)[O-]` [compound 9], the IC50 stood at 530 nM.
As to `CC(=O)Nc1cccc(C(=O)Nc2ccc(C(=O)N3CCCC(N(C)C)c4ccccc43)cc2)c1` (stereo not shown) [compound 300], the IC50 came to 480 nM.
The compound `CN1CCN(C(=O)c2ccc(NC(=O)c3cc(Cl)cc(Cl)c3)cc2Cl)c2ccccc2C1` [compound 140] returned an IC50 of 24 nM.
`CN(C)C1CCN(C(=O)c2ccc(NC(=O)c3cc(Cl)cc(Cl)c3)cc2)c2ccccc21` (stereo not shown) [compound 100] displayed an IC50 of 11 nM.
In the case of `CCN(CC)CCOc1cc(C(=O)N2CCCC(N(C)C)c3ccccc32)ccc1NC(=O)c1ccccc1C` (stereo not shown) [compound 294], the IC50 stood at 330 nM.
In the case of `CN1CCCN(C(=O)c2ccc(NC(=O)c3cc(Cl)cc(Cl)c3)cc2)c2ccccc21` [compound 89], the IC50 came out at 35 nM.
The compound `Cc1ccccc1C(=O)Nc1ccc(C(=O)N2CCCC(NC(=O)CN)c3ccccc32)cc1` (stereo not shown) [compound 299] registered an IC50 of 220 nM.
On to `O=C(Nc1ccc(C(=O)N2CCCc3ccccc32)cc1)C1CCCCCCC1` [compound 16], for which the IC50 came to 170 nM.
`CC1CCN(C(=O)c2ccc(NC(=O)c3cc(Cl)cc(Cl)c3)cc2)c2ccccc21` (stereo not shown) [compound 55] gave an IC50 of 91 nM.
For the compound `Cc1ccccc1C(=O)Nc1ccc(C(=O)N2CCCC(N(C)C(=O)Cn3ccnc3)c3ccccc32)cc1` (stereo not shown) [compound 297], the IC50 stood at 51 nM.
To `Cc1ccccc1C(=O)Nc1ccc(C(=O)N2CCCC(OC(N)=O)c3ccccc32)cc1` (stereo not shown) [compound 191] belongs 9 nM.
To `O=C(Nc1ccccc1C(=O)N1CCCc2ccccc21)c1ccc2ccccc2c1` [compound 20] belongs 1400 nM; to `CNCC(=O)NC1CCCN(C(=O)c2ccc(NC(=O)c3ccccc3C)cc2)c2ccccc21` (stereo not shown) [compound 291], 130 nM.
Compound `O=C(Nc1cc(Cl)cc(Cl)c1)c1ccc(C(=O)N2CCCc3ccccc32)cc1` [compound 24] came in with an IC50 of 1090 nM.
With `O=C(Nc1ccc(C(=O)N2CCCCCc3ccccc32)cc1)C1CCCCC1` [compound 34], the IC50 worked out at 49 nM.
To `CNC1CCCN(C(=O)c2ccc(NC(=O)c3ccccc3Cl)cc2)c2ccccc21` (stereo not shown) [compound 181] belongs 38 nM.
Compound `O=C(Nc1ccc(C(=O)N2CCCC(NCCc3ccccn3)c3ccccc32)cc1)c1ccccc1Cl` (stereo not shown) [compound 257] displayed an IC50 of 45 nM.
Take `CNC1CCCN(C(=O)c2ccc(NC(=O)c3cc(Cl)cc(Cl)c3)cc2)c2ccccc21` (stereo not shown) [compound 141]: the IC50 stood at 10 nM. Against the preceding compound, the IC50 is about 4.5-fold lower.
In the case of `C=CCNC1CCCN(C(=O)c2ccc(NC(=O)c3ccccc3C)cc2Cl)c2ccccc21` (stereo not shown) [compound 201], the IC50 amounted to 23 nM.
On to `CN(C)C1CCCN(C(=O)c2ccc(NC(=O)c3cccc([N+](=O)[O-])c3)cc2)c2ccccc21` (stereo not shown) [compound 289], for which the IC50 turned out to be 71 nM.
The compound `Cc1ccccc1C(=O)Nc1ccc(C(=O)N2CCCC(N(C)C)c3ccccc32)cc1F` (stereo not shown) [compound 232] had a half-inhibitory concentration (IC50) of 20 nM.
`Cc1ccccc1C(=O)Nc1ccc(C(=O)N2CCC(CN(C)C)c3ccccc32)cc1` (stereo not shown) [compound 145] yielded an IC50 of 60 nM.
The compound `COc1cccc(C(=O)Nc2ccc(C(=O)N3CCN(C)Cc4ccccc43)cc2)c1` [compound 83] gave an IC50 of 730 nM.
`CCOC(=O)CN(C)C1CCCN(C(=O)c2ccc(NC(=O)c3ccccc3C)cc2)c2ccccc21` (stereo not shown) [compound 262]: the IC50 came out at 29 nM.
